Earlier results in patent publication US20240301505A1, “URINARY TRACT CANCER TREATMENT GUIDED BY MUTATIONAL LANDSCAPE” (BROWN UNIVERSITY, priority 2021, published 2024).

Key:
[1] = test system: G:C base pairs
[2] = biological target: T1, CHK1 (Homo sapiens, UniProt O14757); details: in combination with gemcitabine and irinotecan
T1 sequence (O14757 1-476): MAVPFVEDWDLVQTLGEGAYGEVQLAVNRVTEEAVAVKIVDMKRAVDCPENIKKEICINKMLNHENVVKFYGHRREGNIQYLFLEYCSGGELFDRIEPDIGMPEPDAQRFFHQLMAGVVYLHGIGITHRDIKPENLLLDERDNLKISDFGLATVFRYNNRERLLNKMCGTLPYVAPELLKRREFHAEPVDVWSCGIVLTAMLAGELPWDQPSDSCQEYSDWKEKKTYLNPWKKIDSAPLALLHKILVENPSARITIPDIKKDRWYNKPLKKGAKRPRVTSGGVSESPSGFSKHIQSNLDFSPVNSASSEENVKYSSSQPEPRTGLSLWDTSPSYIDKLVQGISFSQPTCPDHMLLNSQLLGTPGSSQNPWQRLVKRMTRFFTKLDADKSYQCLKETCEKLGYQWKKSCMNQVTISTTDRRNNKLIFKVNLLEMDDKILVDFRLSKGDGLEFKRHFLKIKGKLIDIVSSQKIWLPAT

[3] = test system: Bladder tumors with ARID1A deficiencies
[4] = test system: advanced breast cancer with mutations in PIK3CA, AKT1 or PTEN and/or PTEN loss; details: monotherapy, patients with advanced breast cancer with mutations in PIK3CA
[5] = test system: p21 protein expression; details: upon treatment
[6] = biological target: CHK2 (Homo sapiens, UniProt O96017); details: in combination with topotecan or camptothecin
[7] = test system: p21
[8] = test system: p21 and p53 protein expression; details: accompanied by an increase in DNA damage and intracellular hydroxyl radicals

Sequence of CHK2 (O96017 whole entry): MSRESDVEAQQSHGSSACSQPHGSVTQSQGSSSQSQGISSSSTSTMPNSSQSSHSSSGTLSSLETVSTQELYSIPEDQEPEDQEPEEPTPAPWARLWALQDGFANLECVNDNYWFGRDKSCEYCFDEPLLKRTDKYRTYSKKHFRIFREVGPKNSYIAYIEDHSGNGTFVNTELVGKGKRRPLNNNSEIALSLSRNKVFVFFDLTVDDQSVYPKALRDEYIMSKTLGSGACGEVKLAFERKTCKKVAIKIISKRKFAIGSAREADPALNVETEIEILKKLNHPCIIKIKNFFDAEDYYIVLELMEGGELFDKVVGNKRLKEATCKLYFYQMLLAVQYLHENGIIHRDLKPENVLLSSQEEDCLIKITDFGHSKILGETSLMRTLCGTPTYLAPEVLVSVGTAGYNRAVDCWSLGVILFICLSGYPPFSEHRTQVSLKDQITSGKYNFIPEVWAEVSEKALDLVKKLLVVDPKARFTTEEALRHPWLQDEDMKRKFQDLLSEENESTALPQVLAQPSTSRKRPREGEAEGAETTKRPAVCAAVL

For `Nc1ccc(-c2ccccc2)cc1` [4-ABP, 4-Aminobiphenyl], the “mutations induced occurring at G:C base pairs” value [1] is given as 82.9%.
For `COc1cc(Nc2cnc(C#N)c(O[C@H](C)CN(C)C)n2)ncc1-c1cnn(C)c1` [CCT244747], the anti-tumor activity [2] is listed as “showed anti-tumor activity”.
For `CC[C@H](C)n1cc(C)c2c(C(=O)NCc3c(C)cc(C)[nH]c3=O)cc(-c3ccc(N4CCNCC4)nc3)cc21` [GSK-126], the sensitivity of tumors [3] is listed as “sensitive”.
For `NC1(c2ccc(-c3nc4ccn5c(=O)[nH]nc5c4cc3-c3ccccc3)cc2)CCC1` [MK-2206], the clinical activity [4] is given as “limited clinical activity”.
For `CCCCN(CCCCO)N=O` [N-butyl-N-(4-hydroxybutyl)nitrosamine], the p21 protein expression [5] is given as “decrease in p21 protein expression”.
For `C/C(=N\N=C(N)N)c1ccc(NC(=O)c2cc3cccc([N+](=O)[O-])c3[nH]2)cc1` [PV1019], the activity in combination [6] is given as “showed enhanced activity”.
In the case of `Nc1ccc(-c2ccc(N)cc2)cc1` [benzidine], the “p21 mRNA levels” value [7] is given as “downregulate p21 mRNA levels” and the p21 protein levels [7] is given as “decrease p21 protein levels”.
In the case of `C[As](C)(O)=S` [dimethylmonothioarsinic acid], the “p21 and p53 protein expression” value [8] is given as “decrease in both p21 and p53 protein expression”.
